According to PubChem BioAssay (NCI):
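Briefly, cells in 96-well plates were exposed to five compound concentrations for 48 h, and endpoints were estimated by linear interpolation. At the GI50, growth is halved. At the TGI there is no net growth.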

Tested on: SF-539 CNS
Assay: growth of human tumour cells (NCI), 48 h

Going from `O=C(O)Cc1cc(Cl)ccc1O` to `COc1ccc(Nc2nnc(-c3cc(O)ccc3O)s2)cc1`, the TGI falls from > 100 µM to 25.8 µM.

First: Cc1nn(-c2ccc(Cl)cc2)c2nc3c(nc12)C(=O)c1ccccc1-3
Second: O=C1/C(=C/c2cccc(Cl)c2Cl)N=C(c2ccccc2)N1C1CC1
The TGI of the first is higher: > 100 µM for the first, 22.3 µM for the second.

Going from `COc1ccc(C(=O)/C=C/c2cc(-c3cc(OC)c(OC)c(OC)c3)n[nH]2)cc1OC` to `COc1cc2c(c(OC)c1OC)-c1ccc(SC)c(=O)cc1C(NC=O)CC2` (configuration not stated), the TGI falls from 2.6 µM to < 0.0464 µM.

Compared with `COc1c(OC[C@H](O)CN2CCOCC2)ccc2c3n(c(=NC(=O)c4cccnc4C)nc12)CCN3`, `COc1ccc(-c2nc3ccc(-c4nc5ccc(N6CCN(c7ccccc7)CC6)cc5[nH]4)cc3[nH]2)cc1OC` is 3.5-fold lower in TGI: 9.91 µM for the first, 2.81 µM for the second.

Compared with `Cn1cc(-c2csc(-c3c[nH]c4ccc(F)cc34)n2)c2cnccc21`, `Cn1cc(C2=C(c3cn(CCCCO)c4ccccc34)C(=O)NC2=O)c2ccccc21` is 5.5-fold higher in TGI: 3.04 µM for the first, 16.7 µM for the second.

`CNCC#Cc1c(F)ccc2c1/C(=C/c1[nH]ccc1OC)C(=O)N2` showed a TGI of 0.853 µM.

Compared with `Cc1nn(-c2ccc(Cl)cc2)c2nc3c(nc12)C(=O)c1ccccc1-3`, `O=C1/C(=C/c2cccc(Cl)c2Cl)N=C(c2ccccc2)N1C1CC1` is lower in GI50: > 100 µM for the first, 10.3 µM for the second.

`COc1ccc(C(=O)/C=C/c2cc(-c3cc(OC)c(OC)c(OC)c3)n[nH]2)cc1OC` and `COc1ccc(-c2nc3ccc(-c4nc5ccc(N6CCN(c7ccccc7)CC6)cc5[nH]4)cc3[nH]2)cc1OC` are within 1.5-fold of each other in GI50: 1.27 µM for the first, 1.37 µM for the second.

Going from `COc1c(OC[C@H](O)CN2CCOCC2)ccc2c3n(c(=NC(=O)c4cccnc4C)nc12)CCN3` to `COc1ccc(Nc2nnc(-c3cc(O)ccc3O)s2)cc1`, the GI50 rises from 0.543 µM to 12.6 µM (23-fold).

Compared with `Cn1cc(-c2csc(-c3c[nH]c4ccc(F)cc34)n2)c2cnccc21`, `Cn1cc(C2=C(c3cn(CCCCO)c4ccccc34)C(=O)NC2=O)c2ccccc21` is 3-fold higher in GI50: 1.63 µM for the first, 4.91 µM for the second.

With `CNCC#Cc1c(F)ccc2c1/C(=C/c1[nH]ccc1OC)C(=O)N2` the GI50 was 0.243 µM.

Tested on: MDA-MB-435
Assay: growth of human tumour cells (NCI), 48 h

First: O=C(O)Cc1cc(Cl)ccc1O
Second: COc1ccc(Nc2nnc(-c3cc(O)ccc3O)s2)cc1
The TGI of the first is higher: > 100 µM for the first, 19.1 µM for the second.

Going from `Cc1nn(-c2ccc(Cl)cc2)c2nc3c(nc12)C(=O)c1ccccc1-3` to `O=C1/C(=C/c2cccc(Cl)c2Cl)N=C(c2ccccc2)N1C1CC1`, the TGI falls from > 100 µM to 24.1 µM.

Going from `COc1ccc(C(=O)/C=C/c2cc(-c3cc(OC)c(OC)c(OC)c3)n[nH]2)cc1OC` to `COc1cc2c(c(OC)c1OC)-c1ccc(SC)c(=O)cc1C(NC=O)CC2` (configuration not stated), the TGI falls from 2.71 µM to < 0.01 µM.

Compared with `COc1c(OC[C@H](O)CN2CCOCC2)ccc2c3n(c(=NC(=O)c4cccnc4C)nc12)CCN3`, `COc1ccc(-c2nc3ccc(-c4nc5ccc(N6CCN(c7ccccc7)CC6)cc5[nH]4)cc3[nH]2)cc1OC` is lower in TGI: > 50 µM for the first, 3.32 µM for the second.

Compared with `Cn1cc(-c2csc(-c3c[nH]c4ccc(F)cc34)n2)c2cnccc21`, `Cn1cc(C2=C(c3cn(CCCCO)c4ccccc34)C(=O)NC2=O)c2ccccc21` is higher in TGI: 3.31 µM for the first, > 25 µM for the second.

Compound `CNCC#Cc1c(F)ccc2c1/C(=C/c1[nH]ccc1OC)C(=O)N2` has a TGI of 1.41 µM.

Compared with `Cc1nn(-c2ccc(Cl)cc2)c2nc3c(nc12)C(=O)c1ccccc1-3`, `O=C1/C(=C/c2cccc(Cl)c2Cl)N=C(c2ccccc2)N1C1CC1` is lower in GI50: > 100 µM for the first, 11.1 µM for the second.

`COc1ccc(C(=O)/C=C/c2cc(-c3cc(OC)c(OC)c(OC)c3)n[nH]2)cc1OC` and `COc1ccc(-c2nc3ccc(-c4nc5ccc(N6CCN(c7ccccc7)CC6)cc5[nH]4)cc3[nH]2)cc1OC` are within 1.5-fold of each other in GI50: 1.34 µM for the first, 1.73 µM for the second.

First: COc1c(OC[C@H](O)CN2CCOCC2)ccc2c3n(c(=NC(=O)c4cccnc4C)nc12)CCN3
Second: COc1ccc(Nc2nnc(-c3cc(O)ccc3O)s2)cc1
The GI50 of the first is 1.5-fold higher: 14.1 µM for the first, 9.22 µM for the second.

Compared with `Cn1cc(-c2csc(-c3c[nH]c4ccc(F)cc34)n2)c2cnccc21`, `Cn1cc(C2=C(c3cn(CCCCO)c4ccccc34)C(=O)NC2=O)c2ccccc21` is 4.8-fold higher in GI50: 1.85 µM for the first, 8.81 µM for the second.

For `CNCC#Cc1c(F)ccc2c1/C(=C/c1[nH]ccc1OC)C(=O)N2`, the GI50 was 0.156 µM.

Tested on: UACC-62 melanoma
Assay: growth of human tumour cells (NCI), 48 h

Compared with `O=C(O)Cc1cc(Cl)ccc1O`, `COc1ccc(Nc2nnc(-c3cc(O)ccc3O)s2)cc1` is lower in TGI: > 100 µM for the first, 20.8 µM for the second.

Going from `Cc1nn(-c2ccc(Cl)cc2)c2nc3c(nc12)C(=O)c1ccccc1-3` to `O=C1/C(=C/c2cccc(Cl)c2Cl)N=C(c2ccccc2)N1C1CC1`, the TGI falls from > 100 µM to 19.5 µM.

First: COc1ccc(C(=O)/C=C/c2cc(-c3cc(OC)c(OC)c(OC)c3)n[nH]2)cc1OC
Second: COc1cc2c(c(OC)c1OC)-c1ccc(SC)c(=O)cc1C(NC=O)CC2 (configuration not stated)
The TGI of the first is lower: 3.22 µM for the first, > 100 µM for the second.

Going from `COc1c(OC[C@H](O)CN2CCOCC2)ccc2c3n(c(=NC(=O)c4cccnc4C)nc12)CCN3` to `COc1ccc(-c2nc3ccc(-c4nc5ccc(N6CCN(c7ccccc7)CC6)cc5[nH]4)cc3[nH]2)cc1OC`, the TGI falls from > 50 µM to 3.63 µM.

First: Cn1cc(-c2csc(-c3c[nH]c4ccc(F)cc34)n2)c2cnccc21
Second: Cn1cc(C2=C(c3cn(CCCCO)c4ccccc34)C(=O)NC2=O)c2ccccc21
The TGI of the first is lower: 3.39 µM for the first, > 24.1 µM for the second.

With `CNCC#Cc1c(F)ccc2c1/C(=C/c1[nH]ccc1OC)C(=O)N2` the TGI was 0.815 µM.

Compared with `Cc1nn(-c2ccc(Cl)cc2)c2nc3c(nc12)C(=O)c1ccccc1-3`, `O=C1/C(=C/c2cccc(Cl)c2Cl)N=C(c2ccccc2)N1C1CC1` is lower in GI50: > 100 µM for the first, 9.2 µM for the second.

`COc1ccc(C(=O)/C=C/c2cc(-c3cc(OC)c(OC)c(OC)c3)n[nH]2)cc1OC` and `COc1ccc(-c2nc3ccc(-c4nc5ccc(N6CCN(c7ccccc7)CC6)cc5[nH]4)cc3[nH]2)cc1OC` are within 1.5-fold of each other in GI50: 1.74 µM for the first, 1.41 µM for the second.

First: COc1c(OC[C@H](O)CN2CCOCC2)ccc2c3n(c(=NC(=O)c4cccnc4C)nc12)CCN3
Second: COc1ccc(Nc2nnc(-c3cc(O)ccc3O)s2)cc1
The GI50 of the first is 30-fold lower: 0.33 µM for the first, 9.89 µM for the second.

Compared with `Cn1cc(-c2csc(-c3c[nH]c4ccc(F)cc34)n2)c2cnccc21`, `Cn1cc(C2=C(c3cn(CCCCO)c4ccccc34)C(=O)NC2=O)c2ccccc21` is 5-fold higher in GI50: 1.83 µM for the first, 9.07 µM for the second.

`CNCC#Cc1c(F)ccc2c1/C(=C/c1[nH]ccc1OC)C(=O)N2` showed a GI50 of 0.249 µM.

Tested on: EKVX NSCLC
Assay: growth of human tumour cells (NCI), 48 h

`O=C(O)Cc1cc(Cl)ccc1O` and `COc1ccc(Nc2nnc(-c3cc(O)ccc3O)s2)cc1` cannot be ordered by TGI: > 100 µM for the first, > 50 µM for the second.

Going from `Cc1nn(-c2ccc(Cl)cc2)c2nc3c(nc12)C(=O)c1ccccc1-3` to `O=C1/C(=C/c2cccc(Cl)c2Cl)N=C(c2ccccc2)N1C1CC1`, the TGI falls from > 100 µM to 22.2 µM.

First: COc1c(OC[C@H](O)CN2CCOCC2)ccc2c3n(c(=NC(=O)c4cccnc4C)nc12)CCN3
Second: COc1ccc(-c2nc3ccc(-c4nc5ccc(N6CCN(c7ccccc7)CC6)cc5[nH]4)cc3[nH]2)cc1OC
The TGI of the first is higher: > 50 µM for the first, 5.07 µM for the second.

Compared with `COc1cc2c(c(OC)c1OC)-c1ccc(SC)c(=O)cc1C(NC=O)CC2` (configuration not stated), `Cn1cc(-c2csc(-c3c[nH]c4ccc(F)cc34)n2)c2cnccc21` is lower in TGI: > 85.2 µM for the first, 3.3 µM for the second.

First: Cc1nn(-c2ccc(Cl)cc2)c2nc3c(nc12)C(=O)c1ccccc1-3
Second: O=C1/C(=C/c2cccc(Cl)c2Cl)N=C(c2ccccc2)N1C1CC1
The GI50 of the first is higher: > 100 µM for the first, 9.9 µM for the second.

Compared with `COc1c(OC[C@H](O)CN2CCOCC2)ccc2c3n(c(=NC(=O)c4cccnc4C)nc12)CCN3`, `COc1ccc(-c2nc3ccc(-c4nc5ccc(N6CCN(c7ccccc7)CC6)cc5[nH]4)cc3[nH]2)cc1OC` is 2.2-fold higher in GI50: 1.05 µM for the first, 2.29 µM for the second.

Compared with `COc1ccc(Nc2nnc(-c3cc(O)ccc3O)s2)cc1`, `Cn1cc(-c2csc(-c3c[nH]c4ccc(F)cc34)n2)c2cnccc21` is lower in GI50: > 50 µM for the first, 1.62 µM for the second.

Tested on: COLO 205 colon
Assay: growth of human tumour cells (NCI), 48 h

`O=C(O)Cc1cc(Cl)ccc1O` and `COc1ccc(Nc2nnc(-c3cc(O)ccc3O)s2)cc1` cannot be ordered by TGI: > 100 µM for the first, > 50 µM for the second.

`Cc1nn(-c2ccc(Cl)cc2)c2nc3c(nc12)C(=O)c1ccccc1-3` and `O=C1/C(=C/c2cccc(Cl)c2Cl)N=C(c2ccccc2)N1C1CC1` cannot be ordered by TGI: > 100 µM for the first, > 50 µM for the second.

Going from `COc1ccc(C(=O)/C=C/c2cc(-c3cc(OC)c(OC)c(OC)c3)n[nH]2)cc1OC` to `COc1cc2c(c(OC)c1OC)-c1ccc(SC)c(=O)cc1C(NC=O)CC2` (configuration not stated), the TGI falls from 3.21 µM to < 0.01 µM.

Going from `COc1c(OC[C@H](O)CN2CCOCC2)ccc2c3n(c(=NC(=O)c4cccnc4C)nc12)CCN3` to `COc1ccc(-c2nc3ccc(-c4nc5ccc(N6CCN(c7ccccc7)CC6)cc5[nH]4)cc3[nH]2)cc1OC`, the TGI falls from > 50 µM to 2.81 µM.

Going from `CNCC#Cc1c(F)ccc2c1/C(=C/c1[nH]ccc1OC)C(=O)N2` to `Cn1cc(C2=C(c3cn(CCCCO)c4ccccc34)C(=O)NC2=O)c2ccccc21`, the TGI rises from 0.48 µM to > 19.5 µM.

Compared with `Cc1nn(-c2ccc(Cl)cc2)c2nc3c(nc12)C(=O)c1ccccc1-3`, `O=C1/C(=C/c2cccc(Cl)c2Cl)N=C(c2ccccc2)N1C1CC1` is lower in GI50: > 100 µM for the first, 15.1 µM for the second.

Compared with `COc1ccc(C(=O)/C=C/c2cc(-c3cc(OC)c(OC)c(OC)c3)n[nH]2)cc1OC`, `COc1ccc(-c2nc3ccc(-c4nc5ccc(N6CCN(c7ccccc7)CC6)cc5[nH]4)cc3[nH]2)cc1OC` is 2.3-fold lower in GI50: 1.74 µM for the first, 0.77 µM for the second.

Compared with `COc1c(OC[C@H](O)CN2CCOCC2)ccc2c3n(c(=NC(=O)c4cccnc4C)nc12)CCN3`, `COc1ccc(Nc2nnc(-c3cc(O)ccc3O)s2)cc1` is higher in GI50: 0.918 µM for the first, > 50 µM for the second.

Going from `CNCC#Cc1c(F)ccc2c1/C(=C/c1[nH]ccc1OC)C(=O)N2` to `Cn1cc(C2=C(c3cn(CCCCO)c4ccccc34)C(=O)NC2=O)c2ccccc21`, the GI50 rises from 0.113 µM to 7.28 µM (64-fold).
